According to US5208344A, “Naphthalenepropionic acid derivatives as anti-inflammatory/antiallergic agents” (American Home Products Corporation, priority 1991, dated 1993):
Structures can show the parent of a compound that is named as a salt.

Biological target: T1, 5-lipoxygenase (Homo sapiens, UniProt P09917)
T1 construct: Blood is obtained in 50-100 ml quantities from male donors; endogenous in cells; host or cells: human whole blood (leukocytes) from male donors
T1 sequence (P09917 1-674): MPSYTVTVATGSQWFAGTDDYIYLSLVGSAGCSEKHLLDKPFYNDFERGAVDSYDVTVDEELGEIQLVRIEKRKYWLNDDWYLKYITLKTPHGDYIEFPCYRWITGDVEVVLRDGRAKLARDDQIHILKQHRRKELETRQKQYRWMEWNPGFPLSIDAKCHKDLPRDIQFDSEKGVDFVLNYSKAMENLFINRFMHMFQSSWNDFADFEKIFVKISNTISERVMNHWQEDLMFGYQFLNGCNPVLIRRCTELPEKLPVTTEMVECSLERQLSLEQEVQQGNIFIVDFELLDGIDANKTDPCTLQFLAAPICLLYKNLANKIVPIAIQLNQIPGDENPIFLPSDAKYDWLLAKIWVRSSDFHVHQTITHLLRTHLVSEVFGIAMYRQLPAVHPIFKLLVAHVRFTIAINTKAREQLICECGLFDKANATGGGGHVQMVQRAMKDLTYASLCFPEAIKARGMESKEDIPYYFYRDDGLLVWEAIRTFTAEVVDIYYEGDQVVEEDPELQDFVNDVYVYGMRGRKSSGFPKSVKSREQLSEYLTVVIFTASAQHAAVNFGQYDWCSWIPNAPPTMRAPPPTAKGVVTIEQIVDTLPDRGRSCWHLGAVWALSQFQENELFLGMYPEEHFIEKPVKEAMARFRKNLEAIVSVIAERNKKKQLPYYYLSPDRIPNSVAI
Assay: inhibition of 5-lipoxygenase in human whole blood (LTB4)
Assay type: cell-based
Conditions: human whole blood
Summary of the method: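 Donor whole blood preincubated with compound (final 0.1% DMSO) 10 min at 37 °C, then stimulated with 30 μM calcium ionophore A23187 for 20 min at 37 °C; stopped on ice with 10 mM EGTA. Plasma LTB4 measured by RIA or ELISA, expressed per 10^6 neutrophils; IC50 by regression analysis.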

inhibition at 25 µM (25 μM) [%] | inhibition at 5 µM (5 μM, read-out: % Inhibition of LTB4) [%] | Compound
19 | – | C[C@H](C(=O)O)c1ccc2cc(OCc3ccc4ccccc4n3)ccc2c1 [Example 17, S-(α)-α-Methyl-6-(2-quinolinylmethoxy)-2-naphthaleneacetic acid, tromethanime salt]
– | 44 | C[C@H](C(=O)N(C)O)c1ccc2cc(OCc3ccc4ccccc4n3)ccc2c1 [Example 24, (S)-N-Hydroxy-α-N-dimethyl-6-(2-quinolinylmethoxy)-2-naphthaleneacetamide]
